Test results from US20200048259A1, “KDM5 INHIBITORS” (priority 2016, published 2020).

Target: T1, Full-length KDM5B enzyme (Homo sapiens, UniProt Q9UGL1)
T1 construct: recombinant protein from baculovirus-transfected Sf21 cells: full-length KDM5B; MW=176.825 kDa; host or cells: baculovirus-transfected Sf21 insect cells
Assay: KDM5B TR-FRET Enzyme Activity Assay (LANCE)
Format: biochemical
Settings: not given
Description: KDM5B TR-FRET Enzyme Activity Assay
KDM5B enzymatic activity was determined with the LANCE (Lanthanide Chelate Excite) TR-FRET (Time-resolved fluorescence resonance energy transfer) assay. […] Following a 30 minutes compound and enzyme incubation in a humidified chamber, each reaction was initiated by the addition of 1 μL 1× assay buffer containing […] biotinylated H3K4Me3 peptide, and 500 nM α-ketoglutarate. The final reaction in each well of 5 μL consists of 5 nM KDM5B, 500 nM biotinylated-peptide, and 500 nM α-ketoglutarate. De-methylation reactions were allowed to proceed for 60 minutes. Reactions were immediately quenched by the addition of 5 μL of 2× Lance Detection Buffer (PerkinElmer) with 0.5 mM EDTA and 2 nM of Eu-anti-H3K4Mel-2 antibody, and 30 nM of Streptavidin-conjugated Dylight 650 detection reagents. After 60 minutes incubation with detection reagents, reaction plates were read on a PerkinElmer EnVision plate reader using standard TR-FRET protocol. Briefly, excitation of donor molecules (Eu-chelate-anti-H3K4Me1-2-antibody) with a laser light source at 337 nm produces energy that can be transferred to Dylight-650 acceptor molecules if this donor:acceptor pair is within close proximity.
Fluorescence intensity at both 665 nm (acceptor) and 615 nm (donor) are measured and a TR-FRET ratio calculated for each well (acceptor intensity/donor intensity). IC50 values were determined by 4 parameter robust fit of TR-FRET ratio values vs. (Log 10) compound concentrations.

T1 sequence (Q9UGL1 whole entry): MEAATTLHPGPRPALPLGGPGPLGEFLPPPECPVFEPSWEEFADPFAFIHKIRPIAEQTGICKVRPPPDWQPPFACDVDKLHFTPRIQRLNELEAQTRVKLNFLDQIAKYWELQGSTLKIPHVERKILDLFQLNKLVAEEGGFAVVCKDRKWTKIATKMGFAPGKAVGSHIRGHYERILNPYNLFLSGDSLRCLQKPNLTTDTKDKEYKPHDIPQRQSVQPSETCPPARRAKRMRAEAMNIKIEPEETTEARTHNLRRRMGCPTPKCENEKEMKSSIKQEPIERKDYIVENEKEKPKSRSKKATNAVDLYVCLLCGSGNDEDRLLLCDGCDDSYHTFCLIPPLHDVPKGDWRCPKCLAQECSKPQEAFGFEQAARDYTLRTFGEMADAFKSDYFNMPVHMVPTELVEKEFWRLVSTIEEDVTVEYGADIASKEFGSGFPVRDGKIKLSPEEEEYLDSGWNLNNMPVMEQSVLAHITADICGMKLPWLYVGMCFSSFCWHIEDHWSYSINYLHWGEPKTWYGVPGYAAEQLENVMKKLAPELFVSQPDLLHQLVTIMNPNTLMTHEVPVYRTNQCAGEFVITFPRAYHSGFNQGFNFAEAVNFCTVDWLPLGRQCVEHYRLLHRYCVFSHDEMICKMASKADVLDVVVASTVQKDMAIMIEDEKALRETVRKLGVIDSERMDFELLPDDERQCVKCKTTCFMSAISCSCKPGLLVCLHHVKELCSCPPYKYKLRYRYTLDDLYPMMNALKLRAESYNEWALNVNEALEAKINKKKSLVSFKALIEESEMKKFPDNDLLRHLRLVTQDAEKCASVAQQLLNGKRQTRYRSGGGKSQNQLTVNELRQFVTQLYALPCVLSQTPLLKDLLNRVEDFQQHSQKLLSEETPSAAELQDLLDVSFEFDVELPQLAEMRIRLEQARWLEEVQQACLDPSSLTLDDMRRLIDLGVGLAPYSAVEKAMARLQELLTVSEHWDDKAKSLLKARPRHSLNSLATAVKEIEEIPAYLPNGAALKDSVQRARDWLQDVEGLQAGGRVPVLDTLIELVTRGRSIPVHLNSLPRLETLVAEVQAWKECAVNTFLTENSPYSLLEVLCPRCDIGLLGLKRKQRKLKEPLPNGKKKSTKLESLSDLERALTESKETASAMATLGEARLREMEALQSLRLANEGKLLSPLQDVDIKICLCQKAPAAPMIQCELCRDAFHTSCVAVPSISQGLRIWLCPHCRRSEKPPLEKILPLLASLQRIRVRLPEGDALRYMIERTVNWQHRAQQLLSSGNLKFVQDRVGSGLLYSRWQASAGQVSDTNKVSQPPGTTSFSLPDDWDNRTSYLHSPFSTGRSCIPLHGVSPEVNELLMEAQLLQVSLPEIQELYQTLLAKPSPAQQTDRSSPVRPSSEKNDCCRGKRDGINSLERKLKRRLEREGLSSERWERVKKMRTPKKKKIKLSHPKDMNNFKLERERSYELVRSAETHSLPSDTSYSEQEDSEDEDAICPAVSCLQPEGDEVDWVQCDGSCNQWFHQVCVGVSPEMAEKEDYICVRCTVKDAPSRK

IC50 [µM] | Structure (SMILES)
> 100 | CCCCc1cc(=O)n2nc(C)nc2[nH]1 [Example 7-49, 5-butyl-2-methyl[1,2,4]triazolo[1,5-a]pyrimidin-7(4H)-one]
14.2 | Cc1nc2[nH]c(-c3ccc(Cl)cc3)cc(=O)n2n1 [Example 7-51, 5-(4-chlorophenyl)-2-methyl[1,2,4]triazolo[1,5-a]pyrimidin-7(4H)-one]
> 100 | Cc1nc2[nH]c(-c3ccccc3Cl)cc(=O)n2n1 [Example 7-52, 5-(2-chlorophenyl)-2-methyl[1,2,4]triazolo[1,5-a]pyrimidin-7(4H)-one]
> 100 | Cc1nc2[nH]c(CC3CCCC3)cc(=O)n2n1 [Example 7-56, 5-(cyclopentylmethyl)-2-methyl[1,2,4]triazolo[1,5-a]pyrimidin-7(4H)-one]
> 100 | Cc1nc2[nH]c(CC(C)(C)C)cc(=O)n2n1 [Example 7-57, 5-(2,2-dimethylpropyl)-2-methyl[1,2,4]triazolo[1,5-a]pyrimidin-7(4H)-one]
> 100 | Cc1nc2[nH]c(C3CCOCC3)cc(=O)n2n1 [Example 7-58, 2-methyl-5-(tetrahydro-2H-pyran-4-yl)[1,2,4]triazolo[1,5-a]pyrimidin-7(4H)-one]
> 100 | Cc1nc2[nH]c(C3CCCCC3)cc(=O)n2n1 [Example 7-59, 5-cyclohexyl-2-methyl[1,2,4]triazolo[1,5-a]pyrimidin-7(4H)-one]
> 100 | Cc1nc2[nH]c(C3CCCC3)cc(=O)n2n1 [Example 7-61, 5-cyclopentyl-2-methyl[1,2,4]triazolo[1,5-a]pyrimidin-7(4H)-one]
> 100 | Cc1nc2[nH]c(CC3CC3)cc(=O)n2n1 [Example 7-63, 5-(cyclopropylmethyl)-2-methyl[1,2,4]triazolo[1,5-a]pyrimidin-7(4H)-one]
7.64 | Cc1nc2[nH]c(-c3ccccc3)cc(=O)n2n1 [Example 7-69, 2-methyl-5-phenyl-[1,2,4]triazolo[1,5-a]pyrimidin-7(4H)-one]

Same assay, conditions: 5 nM full-length KDM5B, biotinylated H3K4Me3 peptide, 500 nM α-ketoglutarate; ten point titration 100000 nM to 5.08 nM; read-out: IC50

IC50 [µM] | Structure (SMILES)
28.8 | CCc1[nH]c2nc(C)nn2c(=O)c1C [Example 7-47, 5-ethyl-2,6-dimethyl[1,2,4]triazolo[1,5-a]pyrimidin-7(4H)-one]
29.6 | Cc1nc2[nH]c(C(F)(F)F)c(C)c(=O)n2n1 [Example 7-48, 2,6-dimethyl-5-(trifluoromethyl)[1,2,4]triazolo[1,5-a]pyrimidin-7(4H)-one]
70.5 | Cc1nc2[nH]c(C)c(F)c(=O)n2n1 [Example 7-50, 6-fluoro-2,5-dimethyl[1,2,4]triazolo[1,5-a]pyrimidin-7(4H)-one]
37.5 | Cc1nc2[nH]c(-c3ccccc3F)cc(=O)n2n1 [Example 7-53, 5-(2-fluorophenyl)-2-methyl[1,2,4]triazolo[1,5-a]pyrimidin-7(4H)-one]
12.3 | Cc1nc2[nH]c(-c3cccc(Cl)c3)cc(=O)n2n1 [Example 7-54, 5-(3-chlorophenyl)-2-methyl[1,2,4]triazolo[1,5-a]pyrimidin-7(4H)-one]
98.4 | Cc1nc2[nH]c(Cc3ccccc3)cc(=O)n2n1 [Example 7-55, 5-benzyl-2-methyl[1,2,4]triazolo[1,5-a]pyrimidin-7(4H)-one]
6.38 | CCc1c(C(F)(F)F)[nH]c2nc(C)nn2c1=O [Example 7-60, 6-ethyl-2-methyl-5-(trifluoromethyl)[1,2,4]triazolo[1,5-a]pyrimidin-7(4H)-one]
63.2 | Cc1nc2[nH]c(C3CCC3)cc(=O)n2n1 [Example 7-62, 5-cyclobutyl-2-methyl[1,2,4]triazolo[1,5-a]pyrimidin-7(4H)-one]
44.2 | Cc1nc2[nH]c(C3CC3)c(C)c(=O)n2n1 [Example 7-64, 5-cyclopropyl-2,6-dimethyl[1,2,4]triazolo[1,5-a]pyrimidin-7(4H)-one]
28.2 | Cc1nc2[nH]c(C(F)(F)F)c(F)c(=O)n2n1 [Example 7-65, 6-fluoro-2-methyl-5-(trifluoromethyl)[1,2,4]triazolo[1,5-a]pyrimidin-7(4H)-one]
27.8 | Cc1nc2[nH]c(C3CCCC3)c(C)c(=O)n2n1 [Example 7-66, 5-cyclopentyl-2,6-dimethyl[1,2,4]triazolo[1,5-a]pyrimidin-7(4H)-one]
53.6 | Cc1nc2[nH]c(C3CCCCC3)c(C)c(=O)n2n1 [Example 7-67, 5-cyclohexyl-2,6-dimethyl[1,2,4]triazolo[1,5-a]pyrimidin-7(4H)-one]
22.8 | Cc1nc2[nH]c(C3CCC3)c(C)c(=O)n2n1 [Example 7-68, 5-cyclobutyl-2,6-dimethyl[1,2,4]triazolo[1,5-a]pyrimidin-7(4H)-one]
